Source: PubChem BioAssay AID330 (DTP/NCI, 2004)
Several values for one entry are separate records, joined by “and”; a condition that tells them apart may be missing. Identical values can stand only once. Inconclusive results and toxic doses are left out.

System: P388 leukemia ip, CD2F1 mice, survival T/C
Assay: NCI In Vivo Anticancer Drug Screen. Data for tumor model P388 Leukemia (intraperitoneal) in CD2F1 (CDF1) mice
Conditions: endpoint: median survival time, higher = longer survival
Summary of the method: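 Mice carrying the transplanted tumor received test compound or vehicle. Survival was recorded in each group, and the value is the treated-group measurement divided by that of the vehicle-treated control group.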

[1] = dose: 12.5 mg/kg/injection, schedule: Q01DX009 (ip), vehicle: distilled water + Tween-80
[2] = dose: 25.0 mg/kg/injection, schedule: Q01DX009 (ip), vehicle: distilled water + Tween-80
[3] = dose: 50.0 mg/kg/injection, schedule: Q01DX009 (ip), vehicle: distilled water + Tween-80
[4] = dose: 100.0 mg/kg/injection, schedule: Q01DX009 (ip), vehicle: distilled water + Tween-80
[5] = dose: 200.0 mg/kg/injection, schedule: Q01DX009 (ip), vehicle: distilled water + Tween-80

## CC(=O)c1ccc2ccccc2c1OC(=O)c1cccnc1
dose: 6.25 mg/kg/injection, schedule: Q01DX009 (ip), vehicle: distilled water + Tween-80
  T/C: 100 % of control
[1]
  T/C: 104 % of control
[2]
  T/C: 111 % of control and 94 % of control
[3]
  T/C: 107 % of control and 111 % of control
[4]
  T/C: 117 % of control and 119 % of control
[5]
  T/C: 121 % of control

## CC(C)C1N=C(c2ccccc2)OC1=O (configuration not stated)
dose: 60.0 mg/kg/injection, schedule: Q01DX005 (ip), vehicle: Klucel (hydroxypropylcellulose) (HPC)
  T/C: 92 % of control
dose: 120.0 mg/kg/injection, schedule: Q01DX005 (ip), vehicle: Klucel (hydroxypropylcellulose) (HPC)
  T/C: 92 % of control
dose: 240.0 mg/kg/injection, schedule: Q01DX005 (ip), vehicle: Klucel (hydroxypropylcellulose) (HPC)
  T/C: 100 % of control

## C1CN1P1(N2CC2)=NP(N2CC2)(N2CC2)=NP(N2CC2)(N2CC2)=NP(N2CC2)(N2CC2)=N1
dose: 5.0 mg/kg/injection, schedule: Q01DX009 (ip), vehicle: saline
  T/C: 195 % of control
dose: 10.0 mg/kg/injection, schedule: Q01DX009 (ip), vehicle: saline
  T/C: 222 % of control

## CCOC(=O)C(CC(C)C(C)=O)C(=O)OCC (configuration not stated)
dose: 12.5 mg/kg/injection, schedule: Q01DX009 (ip), vehicle: other
  T/C: 93 % of control
dose: 25.0 mg/kg/injection, schedule: Q01DX009 (ip), vehicle: other
  T/C: 90 % of control
dose: 50.0 mg/kg/injection, schedule: Q01DX009 (ip), vehicle: other
  T/C: 94 % of control
dose: 100.0 mg/kg/injection, schedule: Q01DX009 (ip), vehicle: other
  T/C: 97 % of control
dose: 200.0 mg/kg/injection, schedule: Q01DX009 (ip), vehicle: other
  T/C: 103 % of control

## CCN1C(=O)CC(NC2CC(OC3C[C@](O)(C(C)=O)Cc4c(O)c5c(c(O)c43)C(=O)c3c(OC)cccc3C5=O)OC(C)C2O)C1=O (some centres not stated)
dose: 6.25 mg/kg/injection, schedule: Q04DX003 (ip), vehicle: water
  T/C: 115 % of control
dose: 12.5 mg/kg/injection, schedule: Q04DX003 (ip), vehicle: water
  T/C: 103 % of control
dose: 25.0 mg/kg/injection, schedule: Q04DX003 (ip), vehicle: water
  T/C: 105 % of control
dose: 50.0 mg/kg/injection, schedule: Q04DX003 (ip), vehicle: water
  T/C: 105 % of control

## COc1ccc2sc3c(C)ccc(NCCC4CCCN5CCCCC45)c3c(=O)c2c1 (configuration not stated)
dose: 100.0 mg/kg/injection, schedule: Q01DX001 (ip), vehicle: saline with Tween-80
  T/C: 87 % of control
dose: 200.0 mg/kg/injection, schedule: Q01DX001 (ip), vehicle: saline with Tween-80
  T/C: 87 % of control

## NC1CCC2CCCCC2C1 (configuration not stated)
dose: 100.0 mg/kg/injection, schedule: Q01DX001 (ip), vehicle: saline
  T/C: 100 % of control
dose: 200.0 mg/kg/injection, schedule: Q01DX001 (ip), vehicle: saline
  T/C: 104 % of control

## O=C1CCCC1C(=S)S (configuration not stated)
dose: 100.0 mg/kg/injection, schedule: Q04DX003 (ip), vehicle: saline
  T/C: 102 % of control
dose: 200.0 mg/kg/injection, schedule: Q04DX003 (ip), vehicle: saline
  T/C: 102 % of control

## NC(=S)N/N=C/C=N/NC(N)=S
dose: 50.0 mg/kg/injection, schedule: Q01DX009 (ip), vehicle: saline
  T/C: 92 % of control
dose: 100.0 mg/kg/injection, schedule: Q01DX009 (ip), vehicle: saline
  T/C: 90 % of control
dose: 200.0 mg/kg/injection, schedule: Q01DX009 (ip), vehicle: saline
  T/C: 101 % of control

## CNC(=O)OCc1nn(-c2ccccc2)c(C)c1COC(=O)NC
[1]
  T/C: 97 % of control
[2]
  T/C: 97 % of control
[3]
  T/C: 97 % of control
[4]
  T/C: 92 % of control
[5]
  T/C: 92 % of control

## [Ni+2].[O-]/C(=N\N=C\c1ccccn1)c1ccccc1O.[O-]/C(=N\N=C\c1ccccn1)c1ccccc1O
dose: 50.0 mg/kg/injection, schedule: Q04DX002 (ip), vehicle: saline with Tween-80
  T/C: 98 % of control
dose: 100.0 mg/kg/injection, schedule: Q04DX002 (ip), vehicle: saline with Tween-80
  T/C: 101 % of control
dose: 200.0 mg/kg/injection, schedule: Q04DX002 (ip), vehicle: saline with Tween-80
  T/C: 89 % of control

## CC(C)(C)OC(=O)NCCCCC(NC(=O)OCC1c2ccccc2-c2ccccc21)C(=O)O (configuration not stated)
dose: 50.0 mg/kg/injection, schedule: Q01DX005 (ip), vehicle: Klucel (hydroxypropylcellulose) (HPC)
  T/C: 109 % of control
dose: 100.0 mg/kg/injection, schedule: Q01DX005 (ip), vehicle: Klucel (hydroxypropylcellulose) (HPC)
  T/C: 93 % of control

## COc1ccc(C2CC(c3ccccc3)=Nc3ccccc3S2)cc1 (configuration not stated)
dose: 50.0 mg/kg/injection, schedule: Q01DX009 (ip), vehicle: Klucel (hydroxypropylcellulose) (HPC)
  T/C: 101 % of control
dose: 100.0 mg/kg/injection, schedule: Q01DX009 (ip), vehicle: Klucel (hydroxypropylcellulose) (HPC)
  T/C: 108 % of control
dose: 200.0 mg/kg/injection, schedule: Q01DX009 (ip), vehicle: Klucel (hydroxypropylcellulose) (HPC)
  T/C: 108 % of control
